The experiment deals with Nav 1.7 (Homo sapiens (Human), UniProt Q15858). Description: Nav 1.7 IWQ in vitro assay (IonWorks Quattro population patch-clamp). It counts as cell-based. Particulars: for IC50: 293 cells stably transfected with Nav 1.7, second part of table, read-out: Nav1.7 IWQ IC50 IP. Here is the method: Nav 1.7 or Nav 1.5 IWQ In Vitro Assay
293 Cells stably transfected with either Nav 1.7 or Nav 1.5 were recorded in population patch-clamp mode with the IonWorks® Quattro automated electrophysiology system in accordance with the manufacturer's specifications (Molecular Devices, LLC, Sunnyvale, Calif.). Sodium channel currents were measured in response to a train of depolarizations that induced successively greater inactivation.
Cells were then left unclamped for a period of 3 to 8 minutes while a single concentration of test compound was added. Cells were then reclamped and put through the same voltage protocol. Current at the end of the 26th pulse to −20 mV was subtracted from the peak current evoked by the 26th pulse to −20 mV to correct for leak current. Percent block was calculated for each concentration in duplicate, and IC50 curves were fitted to percent block as a function of concentration.
(In general: The patch-clamp technique gives a direct electrical read-out from membranes.)

The structures appear in SMILES notation. Where “and” joins values, the source holds several entries; their conditions need not be identical. Identical values can stand only once.

Usually IC50 stands for the concentration that gives 50% inhibition.

Sequence of Nav 1.7 (Q15858 whole entry): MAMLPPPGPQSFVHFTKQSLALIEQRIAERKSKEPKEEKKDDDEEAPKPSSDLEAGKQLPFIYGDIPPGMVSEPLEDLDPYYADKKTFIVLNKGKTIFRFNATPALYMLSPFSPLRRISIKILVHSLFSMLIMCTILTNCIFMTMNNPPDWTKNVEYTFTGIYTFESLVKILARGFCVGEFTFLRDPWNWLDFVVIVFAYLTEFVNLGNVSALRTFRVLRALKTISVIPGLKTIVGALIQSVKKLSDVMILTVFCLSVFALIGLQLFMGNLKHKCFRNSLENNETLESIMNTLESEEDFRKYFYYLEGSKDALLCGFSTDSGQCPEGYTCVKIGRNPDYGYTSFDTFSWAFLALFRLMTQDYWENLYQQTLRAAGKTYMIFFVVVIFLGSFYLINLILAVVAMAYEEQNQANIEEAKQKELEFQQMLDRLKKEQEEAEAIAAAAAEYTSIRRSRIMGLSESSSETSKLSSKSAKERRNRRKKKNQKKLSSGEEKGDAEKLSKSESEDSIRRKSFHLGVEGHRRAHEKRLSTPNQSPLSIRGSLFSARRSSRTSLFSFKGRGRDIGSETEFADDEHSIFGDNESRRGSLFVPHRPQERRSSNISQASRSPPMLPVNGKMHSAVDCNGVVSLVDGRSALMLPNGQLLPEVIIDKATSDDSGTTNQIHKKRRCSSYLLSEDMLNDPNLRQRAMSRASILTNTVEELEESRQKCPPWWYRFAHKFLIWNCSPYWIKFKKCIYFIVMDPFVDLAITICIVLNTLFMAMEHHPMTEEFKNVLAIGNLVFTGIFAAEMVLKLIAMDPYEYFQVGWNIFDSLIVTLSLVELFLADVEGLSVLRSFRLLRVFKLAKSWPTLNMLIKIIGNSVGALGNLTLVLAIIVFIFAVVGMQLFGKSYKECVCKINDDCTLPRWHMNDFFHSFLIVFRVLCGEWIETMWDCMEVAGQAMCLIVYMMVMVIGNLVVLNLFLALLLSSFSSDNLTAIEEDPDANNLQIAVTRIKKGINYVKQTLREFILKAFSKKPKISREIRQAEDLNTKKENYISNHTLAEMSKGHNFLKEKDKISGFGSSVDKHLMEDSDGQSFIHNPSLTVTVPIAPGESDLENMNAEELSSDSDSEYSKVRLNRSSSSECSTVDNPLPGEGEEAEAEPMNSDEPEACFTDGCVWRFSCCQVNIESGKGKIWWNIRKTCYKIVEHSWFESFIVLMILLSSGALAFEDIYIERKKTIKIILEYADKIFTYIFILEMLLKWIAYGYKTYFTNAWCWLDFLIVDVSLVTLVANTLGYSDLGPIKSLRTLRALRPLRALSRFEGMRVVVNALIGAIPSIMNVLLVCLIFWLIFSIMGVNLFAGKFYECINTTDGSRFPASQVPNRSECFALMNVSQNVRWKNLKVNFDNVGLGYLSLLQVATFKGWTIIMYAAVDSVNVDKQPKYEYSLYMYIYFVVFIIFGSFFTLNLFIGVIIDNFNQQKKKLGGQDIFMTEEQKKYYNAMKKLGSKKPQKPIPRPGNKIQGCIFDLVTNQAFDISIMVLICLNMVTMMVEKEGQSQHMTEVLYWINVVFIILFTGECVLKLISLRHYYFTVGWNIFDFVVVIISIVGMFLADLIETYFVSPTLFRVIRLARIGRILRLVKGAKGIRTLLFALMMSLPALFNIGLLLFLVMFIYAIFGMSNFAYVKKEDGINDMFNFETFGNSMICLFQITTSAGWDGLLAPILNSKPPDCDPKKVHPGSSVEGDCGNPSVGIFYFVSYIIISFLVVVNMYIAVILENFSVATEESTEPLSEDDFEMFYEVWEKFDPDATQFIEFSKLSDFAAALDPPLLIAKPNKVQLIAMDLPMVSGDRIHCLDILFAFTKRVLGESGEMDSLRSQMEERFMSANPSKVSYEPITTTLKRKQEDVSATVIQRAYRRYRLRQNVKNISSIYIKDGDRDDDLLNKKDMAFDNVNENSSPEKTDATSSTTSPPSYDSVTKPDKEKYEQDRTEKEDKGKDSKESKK

Take `COc1ncccc1-c1nccc2cc(S(=O)(=O)Nc3ccncn3)ccc12` [Example 144, 1-(2-METHOXYPYRIDIN-3-YL)-N-(PYRIMIDIN-4-YL)ISOQUINOLINE-6-SULFONAMIDE]: the IC50 is 6.73 µM.
For the compound `COc1c(-c2nccc3cc(S(=O)(=O)Nc4ccncn4)ccc23)cccc1C(F)(F)F` [Example 152, 1-(2-METHOXY-3-(TRIFLUOROMETHYL)PHENYL)-N-(PYRIMIDIN-4-YL)ISOQUINOLINE-6-SULFONAMIDE], the IC50 is 6.81 µM.
On the same count and under the same terms, the result for `COc1c(F)cccc1-c1nccc2cc(S(=O)(=O)Nc3ccncn3)ccc12` [Example 157, 1-(3-FLUORO-2-METHOXYPHENYL)-N-(PYRIMIDIN-4-YL)ISOQUINOLINE-6-SULFONAMIDE] reads 6.39 µM.
Same read-out and setting: the result for `Cc1cc(C#N)ccc1-c1nccc2cc(S(=O)(=O)Nc3ccncn3)ccc12` [Example 159] reads 4.83 µM.
The same measure, in the same setting: for `O=S(=O)(Nc1ccncn1)c1ccc2c(-c3cccc4ccsc34)nccc2c1` [Example 162, 1-(BENZO[B]THIOPHEN-7-YL)-N-(PYRIMIDIN-4-YL)ISOQUINOLINE-6-SULFONAMIDE] the value was 4.12 µM; for `Cn1ccc2cccc(-c3nccc4cc(S(=O)(=O)Nc5ccncn5)ccc34)c21` [Example 164, 1-(1-METHYL-1H-INDOL-7-YL)-N-(PYRIMIDIN-4-YL)ISOQUINOLINE-6-SULFONAMIDE], 6.61 µM.
On to `COc1ncc(F)cc1-c1nccc2cc(S(=O)(=O)Nc3ccncn3)ccc12` [Example 166, 1-(5-FLUORO-2-METHOXYPYRIDIN-3-YL)-N-(PYRIMIDIN-4-YL)ISOQUINOLINE-6-SULFONAMIDE], for which the IC50 was 1.39 µM.
For `COc1cnccc1-c1nccc2cc(S(=O)(=O)Nc3ccncn3)ccc12` [Example 169, 1-(3-METHOXYPYRIDIN-4-YL)-N-(PYRIMIDIN-4-YL)ISOQUINOLINE-6-SULFONAMIDE], the IC50 is 5.17 µM.
On the same count and under the same terms, the result for `COc1ccncc1-c1nccc2cc(S(=O)(=O)Nc3ccncn3)ccc12` [Example 170, 1-(4-METHOXYPYRIDIN-3-YL)-N-(PYRIMIDIN-4-YL)ISOQUINOLINE-6-SULFONAMIDE] reads 2.65 µM; that for `COc1cc(C(F)(F)F)ccc1-c1nccc2cc(S(=O)(=O)Nc3cnccn3)ccc12` [Example 186, 1-(2-METHOXY-4-(TRIFLUOROMETHYL)PHENYL)-N-(PYRAZIN-2-YL)ISOQUINOLINE-6-SULFONAMIDE], 2.34 µM and 0.37 µM; that for `O=S(=O)(Nc1ccncn1)c1ccc2c(Oc3ccc(Cl)c(Cl)c3)nccc2c1` [Example 193, 1-(3,4-DICHLOROPHENOXY)-N-(PYRIMIDIN-4-YL)ISOQUINOLINE-6-SULFONAMIDE], 4.98 µM.
For the compound `O=S(=O)(Nc1nccs1)c1ccc2c(N3CCN(c4ccc(Cl)c(Cl)c4)CC3)nccc2c1` [Example 247, 1-(4-(3,4-DICHLOROPHENYL)PIPERAZIN-1-YL)-N-(THIAZOL-2-YL)ISOQUINOLINE-6-SULFONAMIDE], the “Nav1.7 Single Point Data IWQ (at […]) (%)” value was found to be 35%.
For `COc1cc(C(F)(F)F)ccc1-c1nccc2cc(S(=O)(=O)Nc3ccncn3)cnc12` [Example 292, 8-(2-METHOXY-4-(TRIFLUOROMETHYL)PHENYL)-N-(PYRIMIDIN-4-YL)-1,7-NAPHTHYRIDINE-3-SULFONAMIDE], the half-maximal inhibitory concentration (IC50) came out at 3.94 µM.
Turning to `Cn1ncnc1COc1nccc2cc(S(=O)(=O)Nc3ccncn3)ccc12` [Example 295, 1-((1-METHYL-1H-1,2,4-TRIAZOL-5-YL)METHOXY)-N-(PYRIMIDIN-4-YL)ISOQUINOLINE-6-SULFONAMIDE], the 50% inhibitory concentration (IC50) was greater than 10 µM and the “Nav1.7 Single Point Data IWQ (at […]) (%)” value came out at 36%.
In the same order, the values of `O=S(=O)(Nc1ccncn1)c1ccc2c(OCCn3ccnn3)nccc2c1` [Example 296, 1-(2-(1H-1,2,3-TRIAZOL-1-YL)ETHOXY)-N-(PYRIMIDIN-4-YL)ISOQUINOLINE-6-SULFONAMIDE] are greater than 10 µM and 23%.
As for `O=S(=O)(Nc1ccncn1)c1ccc2c(OCc3cc4n(n3)CCCO4)nccc2c1` [Example 297, 1-((6,7-DIHYDRO-5H-PYRAZOLO[5,1-B][1,3]OXAZIN-2-YL)METHOXY)-N-(PYRIMIDIN-4-YL)ISOQUINOLINE-6-SULFONAMIDE], the IC50 is greater than 10 µM and the “Nav1.7 Single Point Data IWQ (at […]) (%)” value was 38%.
In the same order, the values of `O=S(=O)(Nc1ccncn1)c1ccc2c(OCc3cccnc3N3CCOCC3)nccc2c1` [Example 298, 1-((2-MORPHOLINOPYRIDIN-3-YL)METHOXY)-N-(PYRIMIDIN-4-YL)ISOQUINOLINE-6-SULFONAMIDE] are greater than 10 µM and 29%.
For `O=S(=O)(Nc1ccncn1)c1ccc2c(OCC(F)(F)C3CCOCC3)nccc2c1` [Example 299, 1-(2,2-DIFLUORO-2-(TETRAHYDRO-2H-PYRAN-4-YL)ETHOXY)-N-(PYRIMIDIN-4-YL)ISOQUINOLINE-6-SULFONAMIDE], the concentration for half-maximal inhibition (IC50) was greater than 10 µM and the “Nav1.7 Single Point Data IWQ (at […]) (%)” value amounted to 49%.
Turning to `Cc1cccc(CCCOc2nccc3cc(S(=O)(=O)Nc4ccncn4)ccc23)n1` [Example 300, 1-(3-(6-METHYLPYRIDIN-2-YL)PROPOXY)-N-(PYRIMIDIN-4-YL)ISOQUINOLINE-6-SULFONAMIDE], the IC50 was greater than 10 µM and the “Nav1.7 Single Point Data IWQ (at […]) (%)” value came to 25%.
The corresponding values for `O=S(=O)(Nc1ccncn1)c1ccc2c(OCc3ccc(-n4ccnc4)cc3)nccc2c1` [Example 301, 1-((4-(1H-IMIDAZOL-1-YL)BENZYL)OXY)-N-(PYRIMIDIN-4-YL)ISOQUINOLINE-6-SULFONAMIDE] are greater than 10 µM and 40%.
`O=S(=O)(Nc1ccncn1)c1ccc2c(OCCCc3cn[nH]c3C(F)(F)F)nccc2c1` [Example 302, N-(PYRIMIDIN-4-YL)-1-(3-(5-(TRIFLUOROMETHYL)-1H-PYRAZOL-4-YL)PROPOXY)ISOQUINOLINE-6-SULFONAMIDE]: the IC50 is greater than 10 µM and the “Nav1.7 Single Point Data IWQ (at […]) (%)” value came out at 20%.
In the same order, the values of `O=S(=O)(Nc1ccncn1)c1ccc2c(OCCn3cccc3)nccc2c1` [Example 303, 1-(2-(1H-PYRROL-1-YL)ETHOXY)-N-(PYRIMIDIN-4-YL)ISOQUINOLINE-6-SULFONAMIDE] are greater than 10 µM and 40%.
On to `O=S(=O)(Nc1ccncn1)c1ccc2c(OCc3ccc(N4CCOCC4)cc3)nccc2c1` [Example 304, 1-((4-MORPHOLINOBENZYL)OXY)-N-(PYRIMIDIN-4-YL)ISOQUINOLINE-6-SULFONAMIDE], for which the concentration for half-maximal inhibition (IC50) is greater than 10 µM and the “Nav1.7 Single Point Data IWQ (at […]) (%)” value amounted to 32%.
The corresponding values for `Cn1cc(CCOc2nccc3cc(S(=O)(=O)Nc4ccncn4)ccc23)cn1` [Example 305, 1-(2-(1-METHYL-1H-PYRAZOL-4-YL)ETHOXY)-N-(PYRIMIDIN-4-YL)ISOQUINOLINE-6-SULFONAMIDE] are greater than 10 µM and 24%.
In the same order, the values of `Cn1ncc2cccc(-c3nccc4cc(S(=O)(=O)Nc5ccncn5)ccc34)c21` [Example 306, 1-(1-METHYL-1H-INDAZOL-7-YL)-N-(PYRIMIDIN-4-YL)ISOQUINOLINE-6-SULFONAMIDE] are greater than 10 µM and 35%.
With `Cc1c(-c2nccc3cc(S(=O)(=O)Nc4ccncn4)ccc23)ccc2c1cnn2C` [Example 307], the IC50 was greater than 10 µM and the “Nav1.7 Single Point Data IWQ (at […]) (%)” value amounted to 40%.
As for `Cc1cc2c(cnn2C)cc1-c1nccc2cc(S(=O)(=O)Nc3ccncn3)ccc12` [Example 308], the IC50 is greater than 10 µM and the “Nav1.7 Single Point Data IWQ (at […]) (%)” value amounted to 45%.
On to `Cc1ccc2c(cnn2C)c1-c1nccc2cc(S(=O)(=O)Nc3ccncn3)ccc12` [Example 309], for which the IC50 is greater than 10 µM and the “Nav1.7 Single Point Data IWQ (at […]) (%)” value was found to be 27%.
With `O=S(=O)(Nc1ccncn1)c1ccc2c(-c3cccc4cccnc34)nccc2c1` [Example 310, N-(PYRIMIDIN-4-YL)-1-(QUINOLIN-8-YL)ISOQUINOLINE-6-SULFONAMIDE], the IC50 was greater than 10 µM and the “Nav1.7 Single Point Data IWQ (at […]) (%)” value is 46%.
`Cc1noc(C)c1-c1nccc2cc(S(=O)(=O)Nc3ccncn3)ccc12` [Example 311, 1-(3,5-DIMETHYLISOXAZOL-4-YL)-N-(PYRIMIDIN-4-YL)ISOQUINOLINE-6-SULFONAMIDE]: the “Nav1.7 Single Point Data IWQ (at […]) (%)” value is reported as 29%.
For the compound `Cn1nc(C(F)(F)F)cc1-c1nccc2cc(S(=O)(=O)Nc3ccncn3)ccc12` [Example 312, 1-(1-METHYL-3-(TRIFLUOROMETHYL)-1H-PYRAZOL-5-YL)-N-(PYRIMIDIN-4-YL)ISOQUINOLINE-6-SULFONAMIDE], the IC50 was greater than 10 µM and the “Nav1.7 Single Point Data IWQ (at […]) (%)” value came to 47%.
Turning to `COc1nccc(NS(=O)(=O)c2ccc3c(-c4ccc(C(F)(F)F)cc4OC)nccc3c2)n1` [Example 313, 1-(2-METHOXY-4-(TRIFLUOROMETHYL)PHENYL)-N-(2-METHOXYPYRIMIDIN-4-YL)ISOQUINOLINE-6-SULFONAMIDE], the IC50 was greater than 10 µM and the “Nav1.7 Single Point Data IWQ (at […]) (%)” value was determined as 39%.
The corresponding values for `COc1cc(C(F)(F)F)ccc1-c1nccc2cc(S(=O)(=O)NC(C)=O)ccc12` [Example 314, N-((1-(2-METHOXY-4-(TRIFLUOROMETHYL)PHENYL)ISOQUINOLIN-6-YL)SULFONYL)ACETAMIDE] are greater than 10 µM and 39%.
With `Cn1ccnc1-c1nccc2cc(S(=O)(=O)Nc3nccs3)ccc12` [Example 315, 1-(1-METHYL-1H-IMIDAZOL-2-YL)-N-(THIAZOL-2-YL)ISOQUINOLINE-6-SULFONAMIDE 2,2,2-TRIFLUOROACETATE], the half-maximal inhibitory concentration (IC50) is greater than 10 µM and the “Nav1.7 Single Point Data IWQ (at […]) (%)” value is on record as 37%.

Source of the values: patent US9012443B2 (Amgen Inc., priority 2011, dated 2015).
